Source: patent publication US20230021483A1, “[…] […] METHOD AND CLASSIFICATION OF PHARMACEUTICAL COMPONENTS BY USING TRANSCRIPTOMES” (National Institutes of Biomedical Innovation, Health and …, priority 2016, published 2023)
Values joined by “and” are separate entries in the source; they are usually repeats but may differ in a detail not shown here. Equal values may be shown once.

Key:
[1] = system: liver (LV); assay: Whole organ transcriptome (GeneChip microarray) of liver 6 h after adjuvant administration: sDEGs, hierarchical clustering; type: in vivo, C57BL/6 mice; for cluster of strongly responding individual samples in LV (clustering exceptions): key: G1 (interferon signaling); G2 (metabolism of lipids and lipoproteins); G3 (response to stress); G4 (response to wounding); G5 (phosphate-containing compound metabolic process); G6 (phagosome)
[2] = system: preferentially upregulated genes in LV, SP, LN; assay: Z-score-based differential gene expression analysis (adjuvant group- or adjuvant-associated genes, 40 module mapping, TargetMine annotation); type: in vivo, C57BL/6 mice
In short: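 Per-sample fold-change values converted to gene-wise z-scores within each organ's data set, then triplicate z-scores summed per adjuvant. Genes with summed score >3 taken as preferentially expressed; gene groups defined by combined per-adjuvant z-score thresholds (z>1 to z>3) specific to each organ.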

[3] = ID, LN, samples x1-x3, Module#(LN) 40
[4] = liver (LV), gene group G1, module 20, individual mice x1-x3, route ID/IP/IN

D35: A class CpG ODN (5′-GGTGCATCGATGCAGGGGGG-3′), TLR9 ligand (DNA GGTGCATCGATGCAGGGGGG; chemistry not given here)
Number of gene probes with statistically significant changes (sDEGs), LV, Down ([1]; i.d. administration, liver, fold change <0.667, p<0.01, customized PA call=1, 6 h after adjuvant): 36 | Number of gene probes with statistically significant changes (sDEGs), LV, Up ([1]; i.d. administration, liver, fold change >1.5, p<0.01, customized PA call=1, 6 h after adjuvant): 15 | cluster of strongly responding individual samples in LV (clustering exceptions) ([1]; samples D35_ID_x2 and K3_ID_x3 only): G2 | z sum, 1444615_x_at Runx1t1 ([2]; ID, LN, Module#(LN) 1): 3.519 | z sum, 1420894_at Tgfbr1 ([2]; ID, LN, Module#(LN) 3): 3.333 | z sum, 1460069_at Smc6 ([2]; ID, LN, Module#(LN) 7): 3.274 | z sum, 1440371_at --- ([2]; ID, LN, Module#(LN) 8): 3.29 | z sum, 1456346_at --- ([2]; ID, LN, Module#(LN) 9): 3.455 | z sum, 1425105_at Rbp3 ([2]; ID, LN, Module#(LN) 10): 3.333 | z sum, 1455796_x_at Olfm1 ([2]; ID, LN, Module#(LN) 11): 3.262 | z sum, 1443302_at --- ([2]; ID, LN, Module#(LN) 12): 3.407 | z sum, 1442518_at C030044O21Rik ([2]; ID, LN, Module#(LN) 14): 3.546 | z sum, 1419486_at Foxc1 ([2]; ID, LN, Module#(LN) 19): 3.344 | z sum, 1441344_at Erlin1 ([2]; ID, LN, Module#(LN) 21): 3.171 | z sum, 1423611_at Alpl ([2]; ID, LN, Module#(LN) 24): 3.194 | z sum, 1448179_at Usmg5 ([2]; ID, LN, Module#(LN) 24): 3.461 | z sum, 1458457_at --- ([2]; ID, LN, Module#(LN) 26): 3.147 | z sum, 1450377_at Thbs1 ([2]; ID, LN, Module#(LN) 28): 3.002 | z sum, 1443853_x_at Sfmbt1 ([2]; ID, LN, Module#(LN) 32): 3.51 | z sum, 1443392_at Trpv1 ([2]; ID, LN, Module#(LN) 33): 3.184 | z sum, 1440475_at AW011738 ([2]; ID, LN, Module#(LN) 36): 3.038 | z sum, 1416380_at Mov10 ([2]; ID, LN, Module#(LN) 37): 3.277 | z sum, 1421008_at Rsad2 ([2]; ID, LN, Module#(LN) 37): 3.221 | z sum, 1421009_at Rsad2 ([2]; ID, LN, Module#(LN) 37): 3.209 | z sum, 1424339_at Oasl1 ([2]; ID, LN, Module#(LN) 37): 3.198 | z sum, 1426013_s_at Plekha4 ([2]; ID, LN, Module#(LN) 37): 3.228 | z sum, 1436058_at Rsad2 ([2]; ID, LN, Module#(LN) 37): 3.281 | z sum, 1436472_at Slfn9 ([2]; ID, LN, Module#(LN) 37): 3.595 | z sum, 1447241_at --- ([2]; ID, LN, Module#(LN) 37): 3.033 | z sum, 1416039_x_at Cyr61 ([2]; ID, LN, Module#(LN) 39): 3.015 | z sum, 1418191_at Usp18 ([2]; ID, LN, Module#(LN) 40): 3.035 | z sum, 1418293_at Ifit2 ([2]; ID, LN, Module#(LN) 40): 3.02 | z sum, 1418580_at Rtp4 ([2]; ID, LN, Module#(LN) 40): 3.028 | z sum, 1419603_at Ifi204 ([2]; ID, LN, Module#(LN) 40): 3.659 | z sum, 1421911_at Stat2 ([2]; ID, LN, Module#(LN) 40): 3.137 | z sum, 1422006_at Eif2ak2 ([2]; ID, LN, Module#(LN) 40): 3.279 | z sum, 1422141_s_at Csprs///Gm15433///Gm2666///Gm7609///LOC100041903///LOC100503923 ([2]; ID, LN, Module#(LN) 40): 3.074 | z sum, 1423555_a_at Ifi44 ([2]; ID, LN, Module#(LN) 40): 3.551 | z sum, 1424444_a_at 1600014C10Rik ([2]; ID, LN, Module#(LN) 40): 3.108 | z sum, 1424607_a_at Gm4354 ([2]; ID, LN, Module#(LN) 40): 3.422 | z sum, 1424609_a_at Cwc22///Gm4354///Xdh ([2]; ID, LN, Module#(LN) 40): 3.429 | z sum, 1431095_a_at Herc6 ([2]; ID, LN, Module#(LN) 40): 3.065 | z sum, 1432417_a_at Tspan2 ([2]; ID, LN, Module#(LN) 40): 3.906 | z sum, 1439886_at --- ([2]; ID, LN, Module#(LN) 40): 3.151 | z sum, 1450403_at Stat2 ([2]; ID, LN, Module#(LN) 40): 3.389 | z sum, 1451777_at Ddx60 ([2]; ID, LN, Module#(LN) 40): 3.02 | z sum, 1452349_x_at Ifi205///Mnda ([2]; ID, LN, Module#(LN) 40): 3.123 | z sum, 1453196_a_at Oasl2 ([2]; ID, LN, Module#(LN) 40): 3.123 | z sum, 1453299_a_at Pnp///Pnp2 ([2]; ID, LN, Module#(LN) 40): 3.12 | z sum, 1453757_at Herc6 ([2]; ID, LN, Module#(LN) 40): 3.183 | z sum, 1456164_at AW011738 ([2]; ID, LN, Module#(LN) 40): 3.347 | z sum, 1457035_at Al607873 ([2]; ID, LN, Module#(LN) 40): 3.377 | z-score of fold change, 1460069_at Smc6 ([2]; ID, LN, samples x1-x3, Module#(LN) 7): 0.716 and 1.173 and 1.385 | z-score of fold change, 1442518_at C030044O21Rik ([2]; ID, LN, samples x1-x3, Module#(LN) 14): 0.953 and 1.161 and 1.432 | z-score of fold change, 1423611_at Alpl ([2]; ID, LN, samples x1-x3, Module#(LN) 24): 0.707 and 1.244 | z-score of fold change, 1436472_at Slfn9 ([2]; ID, LN, samples x1-x3, Module#(LN) 37): 1.143 and 1.047 and 1.405 | z-score of fold change, 1419603_at Ifi204 [2, 3]: 1.185 and 1.269 and 1.205 | z-score of fold change, 1422006_at Eif2ak2 [2, 3]: 1.174 and 1.037 and 1.068 | z-score of fold change, 1424607_a_at Gm4354 [2, 3]: 1.005 and 1.314 and 1.103 | z-score of fold change, 1424609_a_at Cwc22///Gm4354///Xdh [2, 3]: 1.178 and 1.294 and 0.958 | z-score of fold change, 1432417_a_at Tspan2 [2, 3]: 1.133 and 1.404 and 1.369 | z-score of fold change, 1451777_at Ddx60 [2, 3]: 0.83 and 1.215 and 0.975 | z-score of fold change, 1457035_at Al607873 [2, 3]: 0.908 and 1.231 and 1.239 | interferon induction relative to adjuvants targeting the same receptor ([2]; LN, z-scores and 40 module mapping): relatively stronger interferon inducer than K3 or K3SPG | Z score of gene expression, Adar (probe 1425405_a_at) [2, 4]: −0.1 and −0.3 (2×) | Z score of gene expression, Adar (probe 1434268_at) [2, 4]: −0.3 (2×) and −0.4 | Z score of gene expression, Ddx58 (probe 1436562_at) [2, 4]: −0.4 (2×) and −0.1 | Z score of gene expression, Ddx58 (probe 1456890_at) [2, 4]: −0.3 (2×) and −0.4 | Z score of gene expression, Eif2ak2 (probe 1422005_at) [2, 4]: −0.5 and −0.4 (2×) | Z score of gene expression, G3bp2 (probe 1421323_a_at) [2, 4]: −0.5 and −0.4 (2×) | Z score of gene expression, Gm9706///Isg15 (probe 1431591_s_at) [2, 4]: −0.5 | Z score of gene expression, H2-T10///H2-T22///H2-T9 (probe 1449875_s_at) [2, 4]: −0.4 and −0.3 and −0.2 | Z score of gene expression, Ifih1 (probe 1426276_at) [2, 4]: −0.5 (2×) and −0.3 | Z score of gene expression, Ifit1 (probe 1449025_at) [2, 4]: −0.5 | Z score of gene expression, Ifit1 (probe 1450783_at) [2, 4]: −0.5 and −0.4 (2×) | Z score of gene expression, Irf7 (probe 1417244_a_at) [2, 4]: −0.3 (2×) and −0.2 | Z score of gene expression, Irgm1 (probe 1418825_at) [2, 4]: −0.5 (2×) and −0.3 | Z score of gene expression, Mndal (probe 1426906_at) [2, 4]: −0.5 and −0.4 and −0.3 | Z score of gene expression, Pml (probe 1448757_at) [2, 4]: −0.7 and −0.4 and −0.3 | Z score of gene expression, Pml (probe 1456103_at) [2, 4]: −0.4 and −0.3 (2×) | Z score of gene expression, Rnf213 (probe 1455500_at) [2, 4]: −0.4 | Z score of gene expression, Rsad2 (probe 1436058_at) [2, 4]: −0.5 | Z score of gene expression, Shisa5 (probe 1423986_a_at) [2, 4]: −0.5 and −0.6 and −0 | Z score of gene expression, Shisa5 (probe 1437503_a_at) [2, 4]: −0.4 (2×) and 0.15 | Z score of gene expression, Stat1 (probe 1450033_a_at) [2, 4]: −0.5 (2×) and −0.4 | Z score of gene expression, Stat1 (probe 1450034_at) [2, 4]: −0.5 | Z score of gene expression, Tdrd7 (probe 1426716_at) [2, 4]: −0.4 (2×) and −0.1 | Z score of gene expression, Tor1aip2 (probe 1418115_s_at) [2, 4]: −0.4 and −0.6 and −0.1 | Z score of gene expression, Tor1aip2 (probe 1418116_at) [2, 4]: −0.4 and −0.5 and −0.2 | Z score of gene expression, Tor1aip2 (probe 1435526_at) [2, 4]: −0.4 (2×) and −0.5 | Z score of gene expression, Trim12a (probe 1437432_a_at) [2, 4]: −0.4 (2×) and −0.5 | Z score of gene expression, Uba7 (probe 1426970_a_at) [2, 4]: −0.8 and −0.6 and −0.5
